{"source": "ChEMBL document CHEMBL1134559", "about": "(J Med Chem, 2001)", "key": {"[1]": {"biological_target": "T1, Kappa-type opioid receptor (Cavia porcellus, UniProt P41144)", "T1 sequence (P41144 whole entry)": "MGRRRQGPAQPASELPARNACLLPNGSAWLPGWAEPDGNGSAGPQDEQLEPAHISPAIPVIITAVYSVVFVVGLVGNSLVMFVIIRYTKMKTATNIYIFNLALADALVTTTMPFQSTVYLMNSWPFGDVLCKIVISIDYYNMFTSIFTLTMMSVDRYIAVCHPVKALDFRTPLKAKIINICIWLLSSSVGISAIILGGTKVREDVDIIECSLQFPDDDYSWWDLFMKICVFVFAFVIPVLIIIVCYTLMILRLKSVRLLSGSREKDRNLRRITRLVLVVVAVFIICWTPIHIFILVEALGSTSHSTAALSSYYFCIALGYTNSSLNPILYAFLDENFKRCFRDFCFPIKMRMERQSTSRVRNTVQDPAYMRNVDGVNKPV", "assay": "Inhibition of stimulation of [35S]GTP-gamma-S, binding produced by the selective agonist (U69593, kappa-receptor), in guinea pig caudate membranes."}, "Mu-type opioid receptor [2]": {"biological_target": "T2, Mu-type opioid receptor (Rattus norvegicus, UniProt P33535)", "T2 sequence (P33535 whole entry)": "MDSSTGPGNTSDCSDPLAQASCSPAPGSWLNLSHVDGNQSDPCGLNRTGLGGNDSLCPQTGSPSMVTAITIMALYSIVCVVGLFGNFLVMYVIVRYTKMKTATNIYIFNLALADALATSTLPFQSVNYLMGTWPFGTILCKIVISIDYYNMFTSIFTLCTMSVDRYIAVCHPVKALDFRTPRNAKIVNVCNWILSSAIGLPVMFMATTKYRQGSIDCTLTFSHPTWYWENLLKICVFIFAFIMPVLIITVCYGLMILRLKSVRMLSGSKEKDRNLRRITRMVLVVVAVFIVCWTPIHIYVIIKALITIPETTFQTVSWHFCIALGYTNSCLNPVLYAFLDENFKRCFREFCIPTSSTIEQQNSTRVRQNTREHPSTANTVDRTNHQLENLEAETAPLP", "assay": "Binding affinity to mu-opioid receptor of rat brain using [3H]DAMGO as radioligand."}, "Mu-type opioid receptor [3]": {"biological_target": "Mu-type opioid receptor (Cavia porcellus, UniProt P97266)", "sequence (P97266 whole entry)": "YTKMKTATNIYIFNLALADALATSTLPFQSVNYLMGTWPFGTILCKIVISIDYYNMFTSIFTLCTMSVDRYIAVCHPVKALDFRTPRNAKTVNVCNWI", "assay": "Inhibition of stimulation of [35S]GTP-gamma-S, binding produced by the selective agonist (DAMGO, mu-receptor), in guinea pig caudate membranes.", "type": "functional, cell membranes"}, "[4]": {"biological_target": "T3, Delta-type opioid receptor (Rattus norvegicus, UniProt P33533)", "T3 sequence (P33533 whole entry)": "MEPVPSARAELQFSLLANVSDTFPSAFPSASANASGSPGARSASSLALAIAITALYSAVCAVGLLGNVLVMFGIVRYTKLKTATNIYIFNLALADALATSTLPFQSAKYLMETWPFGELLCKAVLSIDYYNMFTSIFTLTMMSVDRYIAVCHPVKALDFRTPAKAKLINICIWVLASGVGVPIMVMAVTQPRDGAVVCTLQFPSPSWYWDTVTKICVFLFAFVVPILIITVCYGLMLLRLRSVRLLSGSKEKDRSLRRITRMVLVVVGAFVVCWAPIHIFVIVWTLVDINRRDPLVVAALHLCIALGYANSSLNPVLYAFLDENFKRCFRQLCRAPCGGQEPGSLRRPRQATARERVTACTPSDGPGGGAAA", "assay": "Binding affinity to delta-opioid receptor of rat brain using [3H]DADLE as radioligand."}, "Mu-type opioid receptor [5]": {"biological_target": "T2, Mu-type opioid receptor", "assay": "Antagonist activity on agonist (DAMGO) stimulated [35S]GTP-gamma-S, binding in cloned mu opioid receptors.", "type": "functional"}, "[6]": {"biological_target": "T3, Delta-type opioid receptor", "assay": "Binding affinity to delta-opioid receptor of rat brain using [3H]DADLE as radioligand"}, "[7]": {"biological_target": "T1, Kappa-type opioid receptor", "assay": "Binding affinity to opioid receptor kappa 1 of guinea pig brain, using [3H]U-69593 as radioligand"}, "Mu-type opioid receptor [8]": {"biological_target": "T2, Mu-type opioid receptor", "assay": "Binding affinity to mu-opioid receptor of rat brain using [3H]DAMGO as radioligand"}, "[9]": {"assay": "Inhibition of stimulation of [35S]GTP-gamma-S, binding produced by the selective agonist (SNC-80, delta-receptor), in guinea pig caudate membranes"}}}
{"smiles": "CC(C)[C@@H](CN1CC[C@@](C)(c2cccc(O)c2)[C@@H](C)C1)NC(=O)C1Cc2ccc(O)cc2CN1", "note": "(stereo partly specified)", "values": [{"measurement": "Ki", "setting": "[1]", "value": 0.02, "unit": "nM"}, {"measurement": "Ki", "setting": "Mu-type opioid receptor [2]", "value": 3.73, "unit": "nM"}, {"measurement": "Ki", "setting": "Mu-type opioid receptor [3]", "value": 2.16, "unit": "nM"}, {"measurement": "Ki", "setting": "[4]", "value": 301, "unit": "nM"}, {"measurement": "Ki", "setting": "Mu-type opioid receptor [5]", "value": 3.42, "unit": "nM"}]}
{"smiles": "Oc1ccc2c3c1O[C@H]1c4[nH]c5c(c4C[C@@]4(O)[C@@H](C2)N(CC2CC2)CC[C@]314)C[C@@]1(O)[C@H]2Cc3ccc(O)c4c3[C@@]1(CCN2CC1CC1)[C@H]5O4", "note": "[NORBINALTORPHIMINE]", "values": [{"measurement": "Ki", "setting": "[6]", "value": 86, "unit": "nM"}, {"measurement": "Ki", "setting": "[7]", "value": 109, "unit": "nM"}]}
{"smiles": "CC(C)[C@@H](CN1CC[C@@](C)(c2cccc(O)c2)[C@@H](C)C1)NC(=O)CCc1ccc(O)cc1", "values": [{"measurement": "Ki", "setting": "[6]", "value": "> 3400", "unit": "nM"}, {"measurement": "Ki", "setting": "[7]", "value": 3.84, "unit": "nM"}, {"measurement": "Ki", "setting": "Mu-type opioid receptor [8]", "value": 171, "unit": "nM"}, {"measurement": "Ki", "setting": "[9]", "value": 450, "unit": "nM"}]}
